c1ccc2[nH]c(-c3cscn3)nc2c1
solubility (mole fraction)
Settings	283.15 K	288.15 K	293.15 K	298.15 K	303.15 K	308.15 K	313.15 K	318.15 K	323.15 K
in acetonitrile	0.000106	0.000125	0.00015	0.000177	0.000213	0.000259	0.0003	0.000353	0.000419
in isopropanol	0.000682	0.000785	0.000915	0.00103	0.00121	0.00137	0.00155	0.00174	0.00193
in methanol	0.0013	0.00147	0.00163	0.00181	0.002	0.00223	0.00248	0.00273	0.00297
in n-propanol	0.00136	0.00156	0.00177	0.002	0.00225	0.00252	0.00282	0.00314	0.00347
in water	2.04e-07	2.67e-07	3.42e-07	4.23e-07	5.25e-07	6.68e-07	8.6e-07	1.08e-06	1.36e-06
